The Kd is the concentration at which binding is half-saturated. As usually defined, the IC50 is the concentration that inhibits the measured activity by half. Low readings indicate higher potency, high ones lower potency.

The text below walks through data of patent US20050239806A1, “Pyrrolopyrimidine derivatives and analogs and their use in the treatment and prevention of diseases” (Ambit Biosciences Corporation, priority 2004, published 2005).

In test [1] the target is T1, human EGFR (wildtype), EGFR(DKIN) (Homo sapiens, UniProt P00533).
T1 construct: Kd for EGFR(DKIN); made in house
In words: Binding of wildtype-EGFR (T7 phage-displayed kinase competition binding). From the text: (§1) Methods for measuring binding affinities for interactions between small molecules and kinases including FLT3, c-KIT, ABL([…]) [a.k.a. ABL([…])], VEGFR-2 (a.k.a. KDR), and EGFR are described in detail in U.S. application Ser. No. 10/873,835, which is incorporated by reference herein in its entirety. The components of the assays include human kinases expressed as fusions to T7 bacteriophage particles and immobilized ligands that bind to the ATP site of the kinases. […] If the test compound binds the kinase it competes with the immobilized ligand and prevents binding to the solid support. […] The results are read out by quantitating the amount of fusion protein bound to the solid support, which is accomplished by either traditional phage plaque assays or by quantitative PCR (qPCR) using the phage genome as a template. […] The concentration of test molecule that reduces the number of phage bound to the solid support by 50% is equal to the Kd for the interaction between the kinase and the test molecule. Typically, data are collected for twelve concentrations of test compound and, the resultant binding curve is fit to a non-cooperative binding isotherm to calculate Kd. Described in the exemplary assays below is data from binding with varying kinases. […] The term “ND” represents non-determined values. […] The Kd for the interaction between the soluble compound (competitor) molecule and EGFR is equal to the concentration of soluble competitor molecule that causes a 50% reduction in the number of phage recovered in the eluate compared to a control sample lacking soluble competitor.

The target in test [2] is T2, EGFR (L747-E749del, A750P) (Homo sapiens, UniProt P00533, A750P/DEL747-749).
T2 construct: made in house
In words: Binding of mutant-EGFR (phage-displayed kinase competition binding).
From the text: as §1

The target in another test is T3, EGFR (L861Q) (Homo sapiens, UniProt P00533, L861Q).
T3 construct: made in house
Described as above.
From the text: as §1

The target of a further test is T4, EGFR (G719S) (Homo sapiens, UniProt P00533, G719S).
T4 construct: made in house
T4 sequence (P00533 25-1210 G719S): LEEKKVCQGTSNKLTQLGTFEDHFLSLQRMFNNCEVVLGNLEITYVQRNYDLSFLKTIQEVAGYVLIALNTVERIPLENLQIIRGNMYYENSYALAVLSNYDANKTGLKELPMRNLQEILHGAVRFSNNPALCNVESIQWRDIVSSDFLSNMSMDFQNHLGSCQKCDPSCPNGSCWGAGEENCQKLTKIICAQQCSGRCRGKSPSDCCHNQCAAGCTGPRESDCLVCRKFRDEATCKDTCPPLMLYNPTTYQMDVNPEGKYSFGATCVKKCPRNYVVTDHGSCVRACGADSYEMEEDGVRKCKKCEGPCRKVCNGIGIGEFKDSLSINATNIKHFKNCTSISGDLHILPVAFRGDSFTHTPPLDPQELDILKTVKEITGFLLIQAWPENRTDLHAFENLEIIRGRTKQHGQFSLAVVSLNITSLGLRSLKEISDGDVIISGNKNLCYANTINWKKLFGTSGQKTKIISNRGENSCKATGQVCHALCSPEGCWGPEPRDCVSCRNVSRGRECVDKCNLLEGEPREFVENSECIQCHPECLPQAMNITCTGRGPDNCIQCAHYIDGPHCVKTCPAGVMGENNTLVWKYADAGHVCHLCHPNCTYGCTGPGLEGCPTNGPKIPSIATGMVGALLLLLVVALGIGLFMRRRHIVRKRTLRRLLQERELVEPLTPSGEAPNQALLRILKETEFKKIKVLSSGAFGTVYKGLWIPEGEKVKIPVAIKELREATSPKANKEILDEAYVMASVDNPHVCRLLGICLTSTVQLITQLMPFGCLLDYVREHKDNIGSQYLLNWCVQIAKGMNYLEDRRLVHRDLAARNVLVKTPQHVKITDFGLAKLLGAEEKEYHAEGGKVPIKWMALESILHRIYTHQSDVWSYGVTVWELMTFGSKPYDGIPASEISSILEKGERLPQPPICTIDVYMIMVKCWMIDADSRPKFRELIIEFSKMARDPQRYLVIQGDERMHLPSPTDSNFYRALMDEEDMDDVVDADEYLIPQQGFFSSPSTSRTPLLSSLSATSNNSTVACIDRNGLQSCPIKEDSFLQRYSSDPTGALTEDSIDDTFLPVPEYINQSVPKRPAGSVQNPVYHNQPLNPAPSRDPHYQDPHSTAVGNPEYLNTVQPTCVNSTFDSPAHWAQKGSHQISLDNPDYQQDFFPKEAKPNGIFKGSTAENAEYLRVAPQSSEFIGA
Described as above.
From the text: as §1

In test [3] the target is T5, EGFR (L747-T751del, Sins) (Homo sapiens, UniProt P00533, DEL747-750/T751S).
T5 construct: made in house
The test is described as above.
From the text: as §1

The target in the next test is T6, EGFR (G719C) (Homo sapiens, UniProt P00533, G719C).
T6 construct: made in house
The test is described as above.
From the text: as §1

Another test deals with T7, EGFR (E746-A750del) (Homo sapiens, UniProt P00533, DEL746-750).
T7 construct: made in house
T7 sequence (P00533 with tags, fused parts or gaps DEL746-750): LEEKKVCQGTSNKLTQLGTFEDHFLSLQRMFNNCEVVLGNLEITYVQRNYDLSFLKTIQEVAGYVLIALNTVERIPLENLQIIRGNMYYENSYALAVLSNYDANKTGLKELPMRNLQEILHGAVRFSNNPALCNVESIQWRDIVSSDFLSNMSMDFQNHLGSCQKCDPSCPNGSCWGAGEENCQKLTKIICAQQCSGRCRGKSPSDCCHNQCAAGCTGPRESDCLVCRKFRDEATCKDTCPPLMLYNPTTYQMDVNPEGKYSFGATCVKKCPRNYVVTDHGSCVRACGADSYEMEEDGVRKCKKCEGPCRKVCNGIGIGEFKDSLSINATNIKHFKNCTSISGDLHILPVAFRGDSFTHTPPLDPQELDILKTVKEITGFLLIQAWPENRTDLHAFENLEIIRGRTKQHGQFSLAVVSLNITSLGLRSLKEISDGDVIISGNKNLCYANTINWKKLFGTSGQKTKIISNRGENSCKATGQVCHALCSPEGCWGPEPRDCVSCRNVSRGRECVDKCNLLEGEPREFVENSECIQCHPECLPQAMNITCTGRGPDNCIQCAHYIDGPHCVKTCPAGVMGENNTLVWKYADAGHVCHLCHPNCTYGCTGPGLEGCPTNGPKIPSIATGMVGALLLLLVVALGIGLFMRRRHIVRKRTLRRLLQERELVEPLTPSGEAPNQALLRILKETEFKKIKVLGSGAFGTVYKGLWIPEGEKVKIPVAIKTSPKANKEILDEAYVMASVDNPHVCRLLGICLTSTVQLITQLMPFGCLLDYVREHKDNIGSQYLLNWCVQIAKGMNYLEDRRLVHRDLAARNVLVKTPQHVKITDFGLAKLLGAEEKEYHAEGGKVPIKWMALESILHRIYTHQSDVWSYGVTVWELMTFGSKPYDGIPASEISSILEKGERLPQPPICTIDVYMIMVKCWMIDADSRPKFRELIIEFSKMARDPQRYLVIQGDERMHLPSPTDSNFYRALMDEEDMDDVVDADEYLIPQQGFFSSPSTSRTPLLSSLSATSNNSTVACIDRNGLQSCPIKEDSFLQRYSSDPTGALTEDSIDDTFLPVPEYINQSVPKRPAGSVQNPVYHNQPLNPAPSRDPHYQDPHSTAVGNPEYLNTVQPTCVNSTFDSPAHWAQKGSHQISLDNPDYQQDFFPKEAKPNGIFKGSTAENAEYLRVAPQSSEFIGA
The description is as above.
From the text: as §1

The next test concerns the target T8, EGFR (L858R) (Homo sapiens, UniProt P00533, L858R).
T8 construct: made in house
The description is as above.
From the text: as §1

For test [4], the target named is T9, EGFR (L747-T752del, P753S) (Homo sapiens, UniProt P00533, DEL747-752/P753S).
T9 construct: made in house
T9 sequence (P00533 with tags, fused parts or gaps DEL747-752/P753S limits assumed): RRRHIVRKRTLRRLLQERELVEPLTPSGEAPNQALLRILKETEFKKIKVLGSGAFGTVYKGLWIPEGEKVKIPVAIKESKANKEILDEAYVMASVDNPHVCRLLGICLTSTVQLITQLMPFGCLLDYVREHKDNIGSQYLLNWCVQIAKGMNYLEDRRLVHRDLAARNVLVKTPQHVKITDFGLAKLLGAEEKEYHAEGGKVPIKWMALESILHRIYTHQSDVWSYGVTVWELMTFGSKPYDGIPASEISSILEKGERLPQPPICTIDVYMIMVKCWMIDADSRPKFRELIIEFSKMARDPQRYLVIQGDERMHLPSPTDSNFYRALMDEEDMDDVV
The test is described as above.
From the text: as §1

The target of the next test is T10, EGFR (S752-1759del) (Homo sapiens, UniProt P00533, DEL752-759).
T10 construct: made in house
The test is described as above.
From the text: as §1

The target in test [5] is T11, EGFR (tyrosine 1173 phosphorylation) in Lung Cancer Cell Line A459 (Homo sapiens, UniProt P00533).
T11 construct: endogenous in cells
T11 sequence (P00533 25-1210): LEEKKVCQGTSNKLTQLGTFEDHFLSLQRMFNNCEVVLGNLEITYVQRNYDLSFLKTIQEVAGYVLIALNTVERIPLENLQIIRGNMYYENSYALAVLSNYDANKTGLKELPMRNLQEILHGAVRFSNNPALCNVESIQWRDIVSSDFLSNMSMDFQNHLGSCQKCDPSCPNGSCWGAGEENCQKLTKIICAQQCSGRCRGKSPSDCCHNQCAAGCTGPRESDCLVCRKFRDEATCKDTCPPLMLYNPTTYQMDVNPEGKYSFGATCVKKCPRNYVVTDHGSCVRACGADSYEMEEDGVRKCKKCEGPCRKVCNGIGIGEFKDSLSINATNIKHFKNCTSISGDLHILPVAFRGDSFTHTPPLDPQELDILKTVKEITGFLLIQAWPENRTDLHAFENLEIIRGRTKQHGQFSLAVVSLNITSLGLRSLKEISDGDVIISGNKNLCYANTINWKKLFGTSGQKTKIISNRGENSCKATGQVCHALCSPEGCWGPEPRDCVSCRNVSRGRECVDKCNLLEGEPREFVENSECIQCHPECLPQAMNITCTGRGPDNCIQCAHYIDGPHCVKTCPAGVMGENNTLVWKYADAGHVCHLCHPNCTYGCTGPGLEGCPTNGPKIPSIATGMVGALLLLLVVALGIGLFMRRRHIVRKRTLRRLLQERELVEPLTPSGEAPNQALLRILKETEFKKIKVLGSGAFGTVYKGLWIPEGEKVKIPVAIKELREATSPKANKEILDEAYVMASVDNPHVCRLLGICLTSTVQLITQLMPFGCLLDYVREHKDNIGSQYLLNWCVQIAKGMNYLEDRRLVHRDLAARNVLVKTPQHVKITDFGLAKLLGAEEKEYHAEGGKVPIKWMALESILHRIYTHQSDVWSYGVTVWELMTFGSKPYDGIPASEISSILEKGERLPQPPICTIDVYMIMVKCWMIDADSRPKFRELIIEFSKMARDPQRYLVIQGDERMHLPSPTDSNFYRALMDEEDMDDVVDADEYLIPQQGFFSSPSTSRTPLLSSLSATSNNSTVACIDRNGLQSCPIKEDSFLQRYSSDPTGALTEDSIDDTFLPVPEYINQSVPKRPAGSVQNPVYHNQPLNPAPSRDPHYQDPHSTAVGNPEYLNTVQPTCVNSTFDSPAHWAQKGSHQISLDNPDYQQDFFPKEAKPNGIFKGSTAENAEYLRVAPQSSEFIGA
In words: EGFR Autophosphorylation Inhibition Assay in Lung Cancer Cell Line A459. The test is classed as cell-based. Particulars: EGF-induced phosphorylation of tyrosine 1173. How it is done: (§2) Tyrosine 1173 is a major autophosphorylation site resulting from activation of EGFR by epidermal growth factor (EGF). To determine the capacity of a compound to inhibit this phosphorylation activity of EGFR upon itself, the following methodology was used: 4×10^4 A431 cells/well in a 96-well culture plate or 3.6×10^5 A549 cells/well in a 24-well culture plate were cultured overnight at 37° C. in 5% CO2 in low serum culture medium (DMEM supplemented with 0.5% fetal calf serum, 4.500 mg/L glucose and 100 units/ml penicillin-streptomycin). After 16 hours, the cells were pre-incubated in eight serial 3-fold dilutions of test compound (3.3 μM-0.0017 μM) in addition to vehicle control (final concentration on DMSO vehicle was 1%) for two hours. Cells were stimulated by the addition of 5 ng/ml of EGF for five minutes. Cells were then washed with cold phosphate buffered saline (PBS), and incubated for 30 minutes at 4° C. in lysis buffer. Subsequently, the samples were centrifuged at 6000× RCF for 15 minutes, and the level of phosphorylation of EGFR tyrosine 1173 was measured using a sandwich enzyme-linked immunosorbent assay following the manufacturer's recommended protocols (Biosource, Camarillo, Calif.). Total EGFR levels were also measured in the same manner to control for protein level differences. The reported values are those concentrations of compound required to inhibit EGF-induced phosphorylation of tyrosine 1173 by 50%.

Test [6] has as its target T12, EGFR (tyrosine 1173 phosphorylation) in A431 cells (Homo sapiens, UniProt P00533).
T12 construct: endogenous in cells; host or cells: A431
In words: EGFR Autophosphorylation Inhibition Assay in Epidermoid Carcinoma Cell Line A431. Type of test: cell-based. The conditions noted are these: EGF-induced phosphorylation of tyrosine 1173. Here is the method: as §2

T8 sequence (P00533 25-1210 L858R): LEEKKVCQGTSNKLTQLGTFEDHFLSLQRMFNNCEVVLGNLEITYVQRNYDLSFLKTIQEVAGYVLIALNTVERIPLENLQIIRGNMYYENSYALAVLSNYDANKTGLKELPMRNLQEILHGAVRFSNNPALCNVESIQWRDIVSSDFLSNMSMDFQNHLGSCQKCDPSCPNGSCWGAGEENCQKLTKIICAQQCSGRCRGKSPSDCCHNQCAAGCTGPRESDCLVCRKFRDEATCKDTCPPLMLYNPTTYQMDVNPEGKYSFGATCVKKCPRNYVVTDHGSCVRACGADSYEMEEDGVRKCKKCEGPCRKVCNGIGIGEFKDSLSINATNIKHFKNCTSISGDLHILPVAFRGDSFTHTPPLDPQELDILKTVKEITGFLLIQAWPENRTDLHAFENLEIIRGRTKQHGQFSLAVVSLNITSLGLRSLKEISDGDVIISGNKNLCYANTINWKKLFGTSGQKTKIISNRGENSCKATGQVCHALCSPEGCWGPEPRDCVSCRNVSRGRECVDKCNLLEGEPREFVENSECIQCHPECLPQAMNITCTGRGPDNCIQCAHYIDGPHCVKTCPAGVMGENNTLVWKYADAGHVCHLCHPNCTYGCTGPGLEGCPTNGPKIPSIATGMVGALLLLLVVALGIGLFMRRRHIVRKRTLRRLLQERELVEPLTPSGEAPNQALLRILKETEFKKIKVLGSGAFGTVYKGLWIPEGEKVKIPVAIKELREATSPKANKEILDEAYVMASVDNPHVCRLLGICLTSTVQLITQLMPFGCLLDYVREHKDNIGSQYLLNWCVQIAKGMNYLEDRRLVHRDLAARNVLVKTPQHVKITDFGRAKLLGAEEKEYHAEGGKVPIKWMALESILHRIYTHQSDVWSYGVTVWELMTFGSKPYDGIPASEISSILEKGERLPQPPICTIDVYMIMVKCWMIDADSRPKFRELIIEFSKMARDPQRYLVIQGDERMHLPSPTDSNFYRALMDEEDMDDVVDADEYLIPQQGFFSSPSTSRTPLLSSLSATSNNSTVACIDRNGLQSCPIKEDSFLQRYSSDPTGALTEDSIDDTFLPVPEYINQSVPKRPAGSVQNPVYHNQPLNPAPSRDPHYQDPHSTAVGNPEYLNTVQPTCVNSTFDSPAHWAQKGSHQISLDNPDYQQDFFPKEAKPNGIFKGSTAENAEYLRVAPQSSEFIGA

As to `Oc1ccc(-c2cc3c(Sc4ccccc4)ncnc3[nH]2)cc1` [Compound L2], the Kd (in [1]; in test [2]; at EGFR (L861Q); at EGFR (G719S); in test [3]; on EGFR (G719C)) was < 0.1 µM each time. Also, the Kd (on EGFR (E746-A750del); on EGFR (L858R); in test [4]; at EGFR (S752-1759del)) was < 0.1 µM each time. Also, the IC50 in test [5] is 0.1 to 1 µM; in test [6], < 0.1 µM.
As for `COc1ccc(-c2cc3c(Sc4cccc(F)c4)ncnc3[nH]2)cc1` [Compound J8], in test [1], the Kd was < 0.1 µM. Also, the IC50 in [5] and in test [6] was 1 to 10 µM in each case.
`Cc1cccc(Sc2ncnc3[nH]c(-c4ccc(O)cc4)cc23)c1` [Compound L5]: the Kd in test [1] is < 0.1 µM. Also, the results for the IC50 in test [5] and in test [6] were 1 to 10 µM and < 0.1 µM, respectively.
Turning to `Clc1ccc(Sc2ncnc3c2[nH]c2ccccc23)cc1Cl` [Compound K5], the Kd in test [1] was < 0.1 µM; in test [2], < 0.1 µM; on EGFR (L861Q), 0.1 to 1 µM; on EGFR (G719S), < 0.1 µM; in [3], < 0.1 µM; at EGFR (G719C), < 0.1 µM. Also, the dissociation constant (Kd) (at EGFR (E746-A750del); at EGFR (L858R); in test [4]; at EGFR (S752-1759del)) was < 0.1 µM throughout. For the same compound, the IC50 in test [5] and in [6] was 0.1 to 1 µM each time.
For `COc1cccc(-c2cc3c(Sc4cccc(Br)c4)ncnc3[nH]2)c1` [Compound J23], in test [1], the Kd was < 0.1 µM. Further, the IC50 in test [5] and in test [6] was 0.1 to 1 µM each time.
On to `Oc1ccc(-c2cc3c(Oc4cccc(Br)c4)ncnc3[nH]2)cc1` [Compound E3], for which the Kd (in [1]; in test [2]; at EGFR (L861Q); on EGFR (G719S); in test [3]; at EGFR (G719C)) was < 0.1 µM in each case. In addition, the Kd (on EGFR (E746-A750del); on EGFR (L858R); in test [4]; at EGFR (S752-1759del)) was < 0.1 µM each time. Also, the IC50 in test [5] was 0.1 to 1 µM; in [6], < 0.1 µM.
Regarding `Oc1ccc(-c2cc3c(Sc4cccc(F)c4)ncnc3[nH]2)cc1` [Compound L3], the Kd in test [1] is < 0.1 µM. Besides, the 50% inhibitory concentration (IC50) is 1 to 10 µM in test [5] and < 0.1 µM in test [6].
On to `Oc1ccc(-c2cc3c(Sc4ccc(F)cc4)ncnc3[nH]2)cc1` [Compound L8], for which the Kd in test [1] is < 0.1 µM. In addition, the IC50 is 1 to 10 µM in test [5] and < 0.1 µM in [6].
On to `COc1cccc(-c2cc3c(Sc4ccccc4)ncnc3[nH]2)c1` [Compound J33], for which the Kd in test [1] is < 0.1 µM. For the same compound, the IC50 is 1 to 10 µM in test [5] and 0.1 to 1 µM in [6].
Take `COc1ccc(-c2cc3c(Sc4ccc(C)cc4)ncnc3[nH]2)cc1` [Compound J14]: the Kd in test [1] is < 0.1 µM. Also, the IC50 in [5] and in test [6] was 1 to 10 µM throughout.
`Fc1ccc(Sc2ncnc3c2[nH]c2ccccc23)cc1` [Compound K14]: the Kd in test [1] was < 0.1 µM. Also, the IC50 in [5] and in [6] was 0.1 to 1 µM in each case.
